Assay results from patent publication EP0207497A2, “Quinolonecarboxylic acid derivative and process for its preparation” (KYORIN PHARMACEUTICAL CO., LTD., priority 1985, dated 1987).

Key:
Format in all cases: cell-based
B. vulgatus KYA 29327 = assay: Antibacterial spectrum, MIC determination (method of Japan Society of Chemotherapy); details: Phocaeicola vulgatus, KYA29327
[1] = system: Proteus vulgaris IFO 3167; assay: as above; details: Proteus vulgaris, IFO3167
E. coli ATCC 10536 = assay: as above; details: Escherichia coli, ATCC10536
B. fragilis 0558 = assay: as above; details: Bacteroides fragilis, 0558
[2] = system: S. aureus IID 670 (Terajima); assay: as above; details: Staphylococcus aureus, IID670
Pst. micros UPI 5464-1 = assay: as above; details: Parvimonas micra, UPI54641; Pst. micros UPI 5464-1, Gram +, 10^6 cells/ml
[3] = system: Citrobacter freundii IID 976; assay: as above; details: Citrobacter freundii, IID976
[4] = system: Peptostreptococcus anaerobius KYA 27337; assay: as above; details: Peptostreptococcus anaerobius, KYA27337
P. cepacia GIFU 518 = assay: as above; details: Burkholderia cepacia, GIFU518
[5] = system: Peptococcus magnus KY 017; assay: as above; details: Finegoldia magna, KY017
[6] = system: Alcaligenes faecalis 0114002; assay: as above; details: Alcaligenes faecalis 0114002, Gram -, 10^6 cells/ml
[7] = system: Acinetobacter anitratus IID 876; assay: as above; details: Acinetobacter calcoaceticus, IID876
[8] = system: Propionibacterium acens 11828; assay: as above; details: Propionibacterium, 11828
[9] = system: Bacteroides fragilis GM 7000; assay: as above; details: Bacteroides fragilis, GM7000
[10] = system: Streptococcus pyogenes (S-8); assay: as above; details: Streptococcus pyogenes
[11] = system: Veillonella parvula KYA 10790; assay: as above; details: KYA10790; Veillonella parvula KYA 10790, Gram -, 10^6 cells/ml
[12] = system: Klebsiella pneumoniae KY(GN)6445; assay: as above; details: Klebsiella pneumoniae
B. fragilis 25285 = assay: as above; details: Bacteroides fragilis, 25285
[13] = system: Yersinia enterocolitica IID 981; assay: as above; details: Yersinia enterocolitica, IID981
Shigella sonnei IID 969 = assay: as above; details: IID969; Shigella sonnei IID 969, Gram -, 10^6 cells/ml
Method: Minimal inhibitory concentrations (MICs) were determined in accordance with the method recommended by Japan Society of Chemotherapy.

C. ramosum = assay: as above; details: Thomasclavelia ramosa
K. pneumoniae 1-220S = assay: as above; details: Klebsiella pneumoniae, 1220S
[14] = system: Morganella morganii IID 602; assay: as above; details: IID602; Morganella morganii IID 602, Gram -, 10^6 cells/ml
[15] = system: Escherichia coli NIHJ JC-2; assay: as above; details: NIHJJC2; Escherichia coli NIHJ JC-2, Gram -, 10^6 cells/ml
[16] = system: B. thetaiotaomicron (0661); assay: as above; details: Bacteroides thetaiotaomicron
[17] = system: Fusobacterium mortiferum 4249; assay: as above; details: Fusobacterium mortiferum, 4249
[18] = system: Serratia marcescens IID 618; assay: as above; details: Serratia marcescens, IID618
S. aureus Smith = assay: as above; details: Staphylococcus aureus
B. distasonis 8503 = assay: as above; details: Parabacteroides distasonis, 8503
[19] = system: Staphylococcus aureus 209 P; assay: as above; details: Staphylococcus aureus, 209P
P. maltophilia GIFU 2491 = assay: as above; details: Stenotrophomonas maltophilia, GIFU2491
E. coli ML 4707 = assay: as above; details: Escherichia coli, ML4707
[20] = system: Salmonella enteritidis IID 604; assay: as above; details: Salmonella enterica
C. perfringens KYA 13123 = assay: microbe, parasite or virus in culture; details: Clostridium perfringens, KYA13123
P. mirabilis IID 994 = assay: Antibacterial spectrum, MIC determination (method of Japan Society of Chemotherapy); details: Proteus mirabilis, IID994
S. epidermidis IID 866 = assay: as above; details: Staphylococcus epidermidis, IID866
[21] = system: Bacillus subtilis PCI 219; assay: as above; details: Bacillus subtilis, PCI219

Measured: MIC

O=C(O)c1cn(C2CC2)c2cc(N3CCNCC3)c(F)cc2c1=O [CPFX, ciprofloxacin, reference compound]
> 12.5 µg/mL: B. vulgatus KYA 29327 | [16]
0.025 µg/mL: [13] | K. pneumoniae 1-220S | [14] | [18] | [20]
0.0063 µg/mL: [3] | Shigella sonnei IID 969 | [15]
0.2 µg/mL: [2] | Pst. micros UPI 5464-1 | [11] | [19] | S. epidermidis IID 866
12.5 µg/mL: [8] | C. ramosum
1.56 µg/mL: [4] | [17]
0.0125 µg/mL: [1] | E. coli ATCC 10536 | [12] | E. coli ML 4707 | P. mirabilis IID 994
3.13 µg/mL: B. fragilis 0558 | B. fragilis 25285
6.25 µg/mL: [9] | B. distasonis 8503
0.1 µg/mL: [7]
0.05 µg/mL: [21]
0.39 µg/mL: all other assays above
